Experimental data as given in patent publication US11965810B2, “Multiplexed on-chip impedance cytometry system and method” (UNIVERSITY OF VIRGINIA PATENT FOUNDATION, priority 2018, dated 2024).
Entries after “also recorded” stand apart in the source; their conditions may differ.

How the values were obtained:
[1] = tested on: cells (cell cycle phase); experiment: Cell cycle phase analysis by flow cytometry after CPT treatment; assay type: cell-based; conditions: FIG. 16
Source text: Quantifying the proportion of cells in each phase of a cell cycle, including mitotic phases is widely carried out by flow cytometry using a stoichiometric fluorescent stain for DNA that reports the cells' position within the G1, S and G2 phases of the cell cycle. However, these stains are not compatible with live cell analysis.
(§1) FIGS. 16A, 16D, 16G, and 16J, corresponding to subpanel (a), (d), (g), and (j) are from flow cytometry, while the analogous impedance cytometry plots are in FIGS. 16B, 16C, 16E, 16F, 16H, 16I, 16K, and 16L (corresponding to subpanel (b) and (c), (e) and (f), (h) and (i), and (k) and (l)), respectively.
(§2) As per FIG. 16, indeed, CPT treatment at 5 nM and 10 nM levels increases the proportion of the sum of S and G2 phase cells, which can be detected based on the proportion of cells in the high impedance phase contrast (ϕZ contrast) region.

[2] = tested on: cells (cell cycle phase); experiment: Cell cycle phase assessment by impedance cytometry (ϕZ contrast) after CPT treatment; assay type: cell-based; conditions: FIG. 16
Source text: FIG. 16 illustrates that the exemplary impedance contrast method and system can be used to detect lineage of cells based on differences of phases of cell cycle in accordance with an illustrative embodiment. That is, differences in electrophysiology between cells in G1 phase versus those with S and G2 phase can be detected using the phase contrast metric that is sensitive to interior conductivity, which can be an indicator of nucleus size (i.e., cell cycle phase/stage).
In FIG. 16, it can be observed that increasing the proportion of cells in the G2 phase increases the proportion of cells in the high impedance phase contrast (ϕZ contrast) region between 5 nM and 10 nM CPT treatment, whereas lowering the proportion of cells in G2 phase by […] CPT treatment lowers the proportion of cells in the high impedance phase contrast (ϕZ contrast) region.
as §1, §2

[3] = tested on: PDXs of 608; experiment: Impedance phase contrast assessment of drug sensitivity, Gemcitabine-treated PDXs of 608; assay type: cell-based, human; conditions: standard 2D cell culture plate, right from Day 1, more clearly Day 2-5, FIG. 15A
Source text: (§3) In this context, since alterations in subcellular electrophysiology in response to drug-induced apoptosis or autophagy occur earlier in the cell cycle than apparent with staining-based or imaging approaches, the exemplary method and system in using electrophysiology for kinetic monitoring may be used to track differences in stochastic cell sensitivity to various drugs. Additionally, the exemplary electrophysiology method and system require no sample preparation steps for staining or image contrast enhancement, thereby preserving the state of fragile apoptotic cells. […] As a non-limiting example, sensitivity of the electrophysiology of patient-derived pancreatic tumor xenografts (PDXs) to the chemotherapy drug gemcitabine may be used to illustrate the assay. Currently, treatment with folfirinox drug combination is the preferred first-line therapy for pancreatic cancer, but a significant fraction of patients cannot tolerate the overall drug cytotoxicity. […] On the other hand, for Control (untreated) versus Gemcitabine-treated PDXs of mPanc (FIG. 15B), the alterations are only modest over all five days. Indeed, the drug sensitivity determination based on tumor size takes 5 days.

[4] = tested on: PDXs of mPanc; experiment: Impedance phase contrast assessment of drug sensitivity, Gemcitabine-treated PDXs of mPanc; assay type: cell-based, human; conditions: standard 2D cell culture plate, over all five days, FIG. 15B
Source text: as §3

[5] = tested on: PDXs of 608; conditions: PDX 608; cited from earlier work
[6] = tested on: PDXs of mPanc; conditions: PDX mPanc; cited from earlier work

Row | Compound | proportion of the sum of S and G2 phase cells ([1]; CPT treatment at 5 nM) | proportion of the sum of S and G2 phase cells ([1]; CPT treatment at 10 nM) | proportion of cells in S phase ([1]; CPT treatment at 100 nM) | proportion of cells in the G2 phase ([1]; CPT treatment at 100 nM) | proportion of cells in the high impedance phase contrast (ϕZ contrast) region ([2]; CPT treatment at 100 nM) | proportion of cells in the high impedance phase contrast (ϕZ contrast) region ([2]; between 5 nM and 10 nM CPT treatment) | impedance phase contrast, Control (untreated) versus Gemcitabine-treated [3] | impedance phase contrast, Control (untreated) versus Gemcitabine-treated [4] | known sensitivity to gemcitabine [5] | known sensitivity to gemcitabine [6]
1 | CC[C@@]1(O)C(=O)OCc2c1cc1n(c2=O)Cc2cc3ccccc3nc2-1 [CPT] | increases | increases | increasing | lowering; also recorded: lowers | lowers; also recorded: substantive decrease | increases | – | – | – | –
2 | Nc1ccn([C@@H]2O[C@H](CO)[C@@H](O)C2(F)F)c(=O)n1 [Gemcitabine, gemcitabine] | – | – | – | – | – | – | statistically significant differences | only modest | sensitive | relatively more resistant
